Like-named read-outs stand apart in the source and are kept apart here.
Assays:
ovariectomized ICR mice = experiment: Osteoporosis of ovariectomized ICR mice; type: in vivo; conditions: for bone volume/tissue volume / the number of trabecula: femur, micro computed tomography; for bone volume/tissue volume / the number of trabecula / CTx / osteocalcin: 3 weeks; for CTx / osteocalcin: serum
Method: First, the ovaries of ICR mice were removed. After 3 days, the ICR mice were administrated with various dosages (0, 100, and 300 mg/kg) of kinsenoside, respectively. Herein, the unit “mg/kg” means that the dosage (mg) required for each kilogram of the body weight of an animal. After 3 weeks, the ICR mice were sacrificed. ELISA was used to determine the content of osteocalcin and C-terminal cross-lined telopeptides of type I collagen (CTx) in serum. The reagents for determining osteocalcin and CTx were purchased from IDS Nordic A/S, Herlev, Danmarkids. The femurs of the sacrificed ICR mice were taken, and were photographed by a micro computed tomography (SkyScan 1076, Kontizh, Belgium). The computerized axial tomography is shown in FIG. 10, and the ratio of bone volume to tissue volume and the number of trabecula were analyzed with analysis software. Then, the femurs were decalcified and were frozen sectioned. Osteoclasts in the femurs were stained with a TRAP stain reagent.

MC3T3-E1 cells [1] = experiment: Mineralization of MC3T3-E1 cells (Alizarin red-S); type: cell-based; conditions: 14 days
Method: 50 μg/ml of Vitamin C and 10 μM of β-glycerophosphatase were added into culture plates containing MC3T3-E1 cells, and the MC3T3-E1 cells were incubated for 14 days. After 14 days, the mineralization of the MC3T3-E1 cells occurred, and led to the deposition of calcium. Alizarin red-S (Sigma) was used to measure the content of calcium (see Gregory C A, Gunn W G, Peister A, Prockop D J. 2004. An Alizarin red-based assay of mineralization by adherent cells in culture: comparison with cetylpyridinium chloride extract. Anal. Biochem. 329, 77-84).
50 μg/ml of Vitamin C and 10 μM of 0-glycerophosphatase were added into culture plates containing MC3T3-E1 cells, and various concentrations (0, 100, and 1,000 nM) of kinsenoside were added into the culture plates, respectively. The MC3T3-E1 cells were incubated for 14 days, and Alizarin red-S was used to measure the content of calcium.

myelocytes of rats = experiment: Formation of osteoclasts from rat myelocytes (RANKL + M-CSF, TRAP stain); type: cell-based, Wistar rats; conditions: for inhibition at 5 µM / inhibition at 25 µM / inhibition at 50 µM / inhibition at 100 µM: Rattus norvegicus, Osteoclast, 216 h, 9 days
Method: Myelocytes were first prepared. Male Wistar rats with the body weight of 250 g to 300 g were used to prepare myelocytes. Under the condition of anaesthesia, the femurs of the rats were taken, and myelocytes were washed out with a phosphate buffer solution. […] After incubation for 9 days, monocytes in the marrow differentiated into osteoclasts. The osteoclasts were stained with a TRAP (tartrate-resistant acid phosphatase) stain reagent (Sigma, Louis, Mo., USA), and the number of the osteoclasts was calculated. Besides the same RANKL and M-CSF as the control group, various concentrations (0, 5, 25, 50, and 100 μM) of kinsenoside or 10 nM of estradiol (Wako, Japan) were added into culture plates, respectively. Then, rat myelocytes were incubated for 9 days, and the situation that the myelocytes differentiated into osteoclasts was observed. The percentage of the inhibition effect of kinsenoside and estradiol on the formation of osteoclasts was calculated with the following formula, and the result is shown in Table 9. Inhibition percentage (%)=(the number of osteoclasts of the control group−the number of osteoclasts of the experimental group)/the number of osteoclasts of the control group×100% In addition to the aforesaid RANKL, kinsenoside, and/or estradiol, the inhibitor of estradiol, Fulvestrant (Sigma, Louis, Mo., USA) (1 nM), was also added into culture plates. Then, rat myelocytes were incubated for 9 days, and the situation that the myelocytes differentiated into osteoclasts was observed. The percentage of the inhibition effect of kinsenoside on the formation of osteoclasts was calculated, and the result is shown in Table 9.

macrophages RAW 264.7 = experiment: Formation of osteoclasts from macrophages RAW 264.7 (RANKL, TRAP stain); type: cell-based; conditions: Mus musculus, RAW264.7, 120 h, RANKL 50 ng/ml, 5 days, read-out: inhibition percentage
Method: If macrophages RAW 264.7 are incubated in culture plates containing 50 ng/ml of differentiation inducer, RANKL, they usually differentiate into osteoclasts after 5 days. In Experiment H, various concentrations (0, 10, and 50 μM) of kinsenoside or 10 nM of estradiol were added into culture plates containing macrophages RAW 264.7, respectively, and the macrophages RAW 264.7 were incubated for 5 days. […] The number of osteoclasts was counted, and the inhibition percentage of the formation of osteoclasts was calculated with the following formula, and the result is shown in Table 11. Inhibition percentage=(the number of osteoclasts in the control group−the number of osteoclasts in the experimental group)/the number of osteoclasts in the control group×100%

[2] = tested on: ICR mice administrated with lipopolysaccharides; experiment: Septic shock death of ICR mice induced by high dosage of lipopolysaccharides; type: in vivo; conditions: kinsenoside 100 or 300 mg/kg intraperitoneal, LPS 80 mg/kg, FIG. 4
Method: ICR mice were intraperitoneally administrated with various dosages (100 mg/kg or 300 mg/kg) of kinsenoside. 30 minutes later, the ICR mice were intraperitoneally administrated with 80 mg/kg of lipopolysaccharides, and the death rate of the ICR mice within 72 hours was observed.

MC3T3-E1 cells [3] = experiment: Alkaline phosphatase activity of MC3T3-E1 cells; type: cell-based
Method: ALP (alkaline phosphatase) is a molecular indicator or molecular marker for the early stage of the activation of the precursor cells of osteoblasts, and according to the activity of ALP, the activation situation of the precursor cells of osteoblasts can observed. […] The MC3T3-E1 cells were incubated for 3, 5, and 10 days respectively, and then proteins in the cells were extracted. A p-nitrophenyl phosphate liquid substrate system reagent (Sigma) was used to determine the activity of ALP, and the result is shown in Table 13.

[4] = with Fulvestrant 1 nM, read-out: inhibition percentage Experimental Group II
[5] = without Fulvestrant, read-out: inhibition percentage Experimental Group I

`O=C1C[C@@H](OC2OC(CO)C(O)C(O)C2O)CO1` (stereo partly drawn) [kinsenoside, 3-(R)-3-β-D-glucopyranosyloxy-butanolide] was tested, and the “bone tissues of the femurs in micro computed tomography” value (ovariectomized ICR mice; compared to ICR mice that are not ovariectomized, FIG. 10) was “return to a normal state”, the bone volume/tissue volume (ovariectomized ICR mice; kinsenoside 100 mg/kg) was 19.9 ± 1.5 % and the “the number of trabecula” value (ovariectomized ICR mice; kinsenoside 100 mg/kg) was 12.2 ± 1.5 cm⁻¹. For the same compound, the bone volume/tissue volume (ovariectomized ICR mice; kinsenoside 300 mg/kg) was 21.2 ± 2.2 %, the “the number of trabecula” value (ovariectomized ICR mice; kinsenoside 300 mg/kg) was 12.8 ± 1.5 cm⁻¹ and the CTx (ovariectomized ICR mice; kinsenoside 100 mg/kg) was 29.7 ± 6.9 ng/mL. For the same compound, the osteocalcin (ovariectomized ICR mice; kinsenoside 100 mg/kg) was 191.2 ± 33.5 ng/mL, the CTx (ovariectomized ICR mice; kinsenoside 300 mg/kg) was 27.5 ± 3.1 ng/mL and the osteocalcin (ovariectomized ICR mice; kinsenoside 300 mg/kg) was 351.8 ± 80.5 ng/mL. The “Alizarin red-S” value (MC3T3-E1 cells [1]; 10 nM) was 137 ± 29%, the “Alizarin red-S” value (MC3T3-E1 cells [1]; 100 nM) was 137 ± 27% and the “Alizarin red-S” value (MC3T3-E1 cells [1]; 1000 nM) was 174 ± 42 %. For the same compound, the “effect of Fulvestrant on the inhibition of osteoclast formation” value (myelocytes of rats; Fulvestrant 1 nM, summary of Table 9) was “no inhibition effect”, the inhibition at 5 µM (myelocytes of rats; [4]) was 12 ± 7.5% and the inhibition at 5 µM (myelocytes of rats; [5]) was 15.3 ± 7.2%. It also gave an inhibition at 25 µM (myelocytes of rats; [4]) of 16.3 ± 6.7%, an inhibition at 25 µM (myelocytes of rats; [5]) of 25 ± 2% and an inhibition at 50 µM (myelocytes of rats; [4]) of 65.7 ± 3.8%. It also gave an inhibition at 50 µM (myelocytes of rats; [5]) of 50.3 ± 4.2%, an inhibition at 100 µM (myelocytes of rats; [4]) of 76 ± 3.6% and an inhibition at 100 µM (myelocytes of rats; [5]) of 78.1 ± 2.8%. For the same compound, the inhibition at 10 µM (macrophages RAW 264.7; 10 μM) was 19 ± 9%, the inhibition at 25 µM (macrophages RAW 264.7; 25 μM) was 59 ± 8% and the inhibition at 50 µM (macrophages RAW 264.7; 50 μM) was 71 ± 3%. The “death rate of the ICR mice within 72 hours” value [2] was “inhibits the death rate”, the ALP activity (MC3T3-E1 cells [3]; 10 nM, 3 days) was 112 ± 11% and the ALP activity (MC3T3-E1 cells [3]; 10 nM, 5 days) was 120 ± 18%. It also gave an ALP activity (MC3T3-E1 cells [3]; 10 nM, 10 days) of 125 ± 6%, an ALP activity (MC3T3-E1 cells [3]; 100 nM, 3 days) of 124 ± 17% and an ALP activity (MC3T3-E1 cells [3]; 100 nM, 5 days) of 126 ± 17%. For the same compound, the ALP activity (MC3T3-E1 cells [3]; 100 nM, 10 days) was 137 ± 16%, the ALP activity (MC3T3-E1 cells [3]; 1000 nM, 3 days) was 130 ± 21% and the ALP activity (MC3T3-E1 cells [3]; 1000 nM, 5 days) was 132 ± 16 %. For the same compound, the ALP activity (MC3T3-E1 cells [3]; 1000 nM, 10 days) was 150 ± 23 %.

Reference: patent US8084431B2, “Method for inhibiting activation of macrophages, inhibiting formation of osteoclasts, inhibiting function of osteoclasts, and/or activating osteoblasts” (China Medical University, priority 2008, dated 2011)
